In brackets after ≈: the same amount, converted by molar mass.
Key:
[1] = system: 5 kinds of human solid cancer cell lines; assay: In vitro antitumor activity against 5 human solid cancer cell lines compared with cisplatin (SRB assay); type: cell-based; details: in words
Description: Antitumor activities of the compounds of present invention were tested. Antitumor activities of compounds of the present invention were tested in vitro against 5 kinds of human tumor cell lines and 2 kinds of leukemia tumor cell lines. The method of in vitro test is as follows.
B. Method of test(SRB Assay Method)
a. Human solid tumor cell lines, […](non-small lung cell), SKMEL-2(melanoma), HCT-15(colon), SKOV-3(ovarian), XF-498(CNS) were cultured at 37° C., in 5% CO2 incubater using the RPMI 1640 media containing 10% FBS, while they were transfer-cultured successively once or twice per week. Cell cultures were dissolved into the solution of 0.25% trypsin and 3 mM CDTA PBS(-) and then cells were separated from media which the cells were sticked on.
b. 5×10^3 -2×10^4 cells were added into each well of 96-well plate and cultured in 5% CO2 incubater, at 37° C., for 24 hours.
c. Each sample drugs was dissolved in a small quantity of DMSO, and diluted to concentrations prescribed in experiment with media, and then the final concentration of DMSO was controlled below 0.5%.
d. A medium of each well cultured for 24 hours as above b., was removed by aspiration. 200 μl of drug samples prepared in c. was added into each well and the wells were cultured for 48 hours. Tz(time zero) plates were collected at the point of time drugs were added.
e. After Tz plates and plates were treated with cell fixing by TCA of SRB assay method, staining of 0.4% SRB solution, washing with 1% acetic acid, OD values were measured at 520 nm, following elution of dye with 10 mM Tris solution.
e. If T≥Tz, cellular response function was calculated with 100×(T-Tz)/(C-Tz), and if T<Tz, with 100×(T-Tz)/Tz.

[2] = system: L1210 (mouse leukemia cell); assay: In vitro antitumor effects against animal leukemia cells (dye exclusion assay), L1210; type: cell-based; details: Mus musculus, L1210, 48 h, 50% cell growth inhibition, 37° C., trypan blue, read-out: ED50 (the source's name)
Description: L1210(mouse leukemia cell)
(§1) B. Method of Experiment(Dye Exclusion Assay)
(§2) 2) Sample drugs diluted with log dose were added into the cells, and it were cultured at 37° C., for 48 hours, in […] incubater, and then viable cell number was measured, Viable cell number was measured with dye exclusion test using trypan blue.

[3] = system: P388 (mouse lymphoid neoplasma cell); assay: In vitro antitumor effects against animal leukemia cells (dye exclusion assay), P388; type: cell-based; details: Mus musculus, P388, 48 h, 50% cell growth inhibition, 37° C., trypan blue, read-out: ED50 (the source's name)
Description: P388 (mouse lymphoid neoplasma cell)
as §1, §2

[4] = system: L1210 and P388 mouse cancer cells; assay: In vitro antitumor activity against L1210 and P388 compared with mitomycin C (dye exclusion assay); type: cell-based; details: in words
Description: as §1
1) L-1210 and P388 cells that were cultured in RPMI 1640 media containing 10% FBS were regulated as the cell concentration of 1×10^6 cells/ml.
as §2
3) The concentration of sample compounds of 50% cell growth inhibition compared with standard group was determined as IC50.

ICR mice = assay: Acute toxicity test (LD50), Litchfield-Wilcoxon method; type: in vivo, mouse; parameters: unit not given here; details: male ICR mice, 14 days

SMILES	antitumor activities compared with cisplatin [1]	IC50 [2]	IC50 [3]	antitumor activities compared with mitomycin C [4]	LD50 (ICR mice; i.p.)	LD50 (ICR mice; p.o.)
COc1nc(C)c(C)cc1NC(=S)N1CCN(c2cccc(Cl)c2)CC1 [Example 126, 1-[(5,6-dimethyl-2-methoxypyridin-3-yl)aminothiocarbonyl]-4-(3-chlorophenyl) piperazine]	superior antitumor activities to those of cisplatin					
COc1ccc(C)c(N2CCN(C(=O)Nc3cc(C)c(C)nc3OC)CC2)c1 [Example 121]	superior antitumor activities to those of cisplatin					
CCc1cc(NC(=O)N2CCN(c3cc(F)cc(F)c3)CC2)c(OC)nc1C [Example 13, 1-[(5-ethyl-2-methoxy-6-methylpyridine-3-yl)aminocarbonyl]-4-(3,5-difluorophenyl)piperazine]	superior antitumor activities to those of cisplatin	1.7 µg/mL (≈ 4.35 µM)	1.6 µg/mL (≈ 4.1 µM)	same or more excellent antitumor activities		
CCc1cc(NC(=O)N2CCN(c3cc(C)ccc3OC)CC2)c(OC)nc1C [Example 47, 1-[(5-ethyl-2-methoxy-6-methylpyridin-3-yl)aminocarbonyl]-4-(2-methoxy-5-methylphenyl)piperazine]	superior antitumor activities to those of cisplatin	0.3 µg/mL (≈ 0.753 µM)	0.3 µg/mL (≈ 0.753 µM)	same or more excellent antitumor activities		
C#CCNc1cccnc1N1CCN(C(=O)NCc2cc(CC)c(C)nc2OC)CC1 [Example 144, 1-[(5-ethyl-2-methoxy-6-methylpyridin-3-yl)methylaminocarbonyl]-4-[(3-propargylamino)pyridin-2-yl]piperazine]	superior antitumor activities to those of cisplatin					
CCc1cc(NC(=O)N2CCN(c3cccc(OC(C)=O)c3)CC2)c(OC)nc1C [Example 41, 1-[(5-ethyl-2-methoxy-6-methylpyridin-3-yl)aminocarbonyl]-4-(3-acetoxyphenyl)piperazine]	superior antitumor activities to those of cisplatin	1.4 µg/mL (≈ 3.39 µM)	2 µg/mL (≈ 4.85 µM)	same or more excellent antitumor activities		
COc1nc(C)c(C)cc1NC(=O)N1CCN(c2cccc(Cl)c2)CC1 [Example 109, 1-[(5,6-dimethyl-2-methoxypyridin-3-yl)aminocarbonyl]-4-(3-chlorophenyl)piperazine]	superior antitumor activities to those of cisplatin				2,000	> 2,073
CCc1cc(NC(=O)N2CCN(c3cc(OC)ccc3C)CC2)c(OC)nc1C [Example 48, 1-[(5-ethyl-2-methoxy-6-methylpyridin-3-yl)aminocarbonyl]-4-(5-methoxy-2-methylphenyl)piperazine]	superior antitumor activities to those of cisplatin	1.9 µg/mL (≈ 4.77 µM)	1.8 µg/mL (≈ 4.52 µM)	same or more excellent antitumor activities		
COc1nc(C)c(C)cc1NC(=O)N1CCN(c2cc(C)cc(C)c2)CC1 [Example 120, 1-[(5,6-dimethyl-2-methoxypyridin-3-yl)aminocarbonyl]-4-(3,5-xylyl)piperazine]	superior antitumor activities to those of cisplatin	0.3 µg/mL (≈ 0.814 µM)	0.1 µg/mL (≈ 0.271 µM)	same or more excellent antitumor activities		
CCc1cc(NC(=O)N2CCN(c3cccc(Cl)c3)CC2)c(NC)nc1C [Example 91]	superior antitumor activities to those of cisplatin					
CCc1cc(NC(=S)N2CCN(c3cc(OC)cc(OC)c3)CC2)c(OC)nc1C [Example 100, 1-[(5-ethyl-2-methoxy-6-methylpyridin-3-yl)aminothiocarbonyl]-4-(3,5-dimethoxyphenyl)piperazine]	superior antitumor activities to those of cisplatin					
COc1nc(C)c(C)cc1NC(=O)N1CCN(c2cccc(OC(C)=O)c2)CC1 [Example 115, 1-[(5,6-dimethyl-2-methoxypyridin-3-yl)aminocarbonyl]-4-(3-acetoxyphenyl)piperazine]	superior antitumor activities to those of cisplatin					
CCc1cc(NC(=S)N2CCN(c3ccccc3OC)CC2)c(OC)nc1C [Example 97, 1-[(5-ethyl-2-methoxy-6-methylpyridin-3-yl)aminothiocarbonyl]-4-(2-methoxyphenyl)piperazine]	superior antitumor activities to those of cisplatin	2 µg/mL (≈ 4.99 µM)	1.6 µg/mL (≈ 3.99 µM)		1,100	
CCc1cc(NC(=O)N2CCN(c3cc(OC)ccc3Cl)CC2)c(OC)nc1C [Example 50, 1-[(5-ethyl-2-methoxy-6-methylpyridin-3-yl)aminocarbonyl]-4-(2-chloro-5-methoxyphenyl)piperazine]	superior antitumor activities to those of cisplatin	2 µg/mL (≈ 4.77 µM)	1.5 µg/mL (≈ 3.58 µM)			
COc1nc(C)c(C)cc1NC(=O)N1CCN(c2cccc(C)c2C)CC1 [Example 119, 1-[(5,6-dimethyl-2-methoxypyridin-3-yl)aminocarbonyl]-4-(2,3-xylyl)piperazine]	superior antitumor activities to those of cisplatin	2.2 µg/mL (≈ 5.97 µM)	2 µg/mL (≈ 5.43 µM)			
COc1nc(C)c(C)cc1NC(=O)N1CCN(c2cc(F)cc(F)c2)CC1 [Example 111, 1-[(5,6-dimethyl-2-methoxypyridin-3-yl)aminocarbonyl]-4-(3,5-difluorophenyl)piperazine]	superior antitumor activities to those of cisplatin					
CCc1cc(NC(=S)N2CCN(c3cccc(Cl)c3)CC2)c(OC)nc1C [Example 98, 1-[(5-ethyl-2-methoxy-6-methylpyridin-3-yl)aminothiocarbonyl]-4-(3-chlorophenyl)piperazine]	superior antitumor activities to those of cisplatin	2 µg/mL (≈ 4.94 µM)	2.1 µg/mL (≈ 5.19 µM)		> 1,800	> 2,000
COc1nc(C)c(C)cc1NC(=O)N1CCN(c2cccc(O)c2)CC1 [Example 113]	superior antitumor activities to those of cisplatin					
COc1cc(OC)cc(N2CCN(C(=S)Nc3cc(C)c(C)nc3OC)CC2)c1 [Example 129, 1-[(5,6-dimethyl-2-methoxypyridin-3-yl)aminothiocarbonyl]-4-(3,5-dimethoxyphenyl)piperazine]	superior antitumor activities to those of cisplatin					
CCc1cc(NC(=O)N2CCN(c3cccc(O)c3C)CC2)c(OC)nc1C [Example 55, 1-[(5-ethyl-2-methoxy-6-methylpyridin-3-yl)aminocarbonyl]-4-(3-hydroxy-2-methylphenyl)piperazine]	superior antitumor activities to those of cisplatin					
CCc1cc(CNC(=O)N2CCN(c3ccccc3F)CC2)c(OC)nc1C [Example 61]	superior antitumor activities to those of cisplatin				> 1,687	
CCc1cc(NC(=O)N2CCN(c3cccc(C)c3C)CC2)c(OC)nc1C [Example 28, 1-[(5-ethyl-2-methoxy-6-methylpyridin-3-yl)aminocarbonyl]-4-(2,3-dimethylphenyl)piperazine]	superior antitumor activities to those of cisplatin				> 1,800	> 2,000

From patent US5780472A, “Piperazine derivatives and methods for the preparation thereof and compositions containing the same” (Samjin Pharmaceuticazl Co., Ltd., priority 1995, dated 1998)
